Source: patent publication US20250129067A1 (Progentos Therapeutics, Inc., priority 2021, published 2025)

Legend:
PDGFRα = PDGFRα (Homo sapiens (Human), UniProt P16234); assay: PDGFRα kinase enzyme assay (Promega PDGFRα Kinase Enzyme System, ADP-Glo); type: biochemical; details: 11-point dose response, 10,000 nM to 0.169 nM; 150 uM ATP; BLQ = below limit of quantitation; read-out: IC50 Values on PDGFRα Kinase Inhibition, IC50
Experimental: The PDGFRα enzyme assays were conducted per the manufacturer's directions (Promega PDGFRα Kinase Enzyme System and ADP Glo Assay Cat #V8011). […] 20 ng of purified PDGFRα protein was added to the test article. […] ADP-Glo was added to halt the kinase reaction and deplete the remaining ATP. Kinase detection reagent, containing luciferase and luciferin, was used to convert the ADP signal into luminescence. Luminescence was measured using a Molecular Devices Spectramax ID5 and compared to a standard curve to determine kinase activity. IC50s were calculated using Prism 9, Graphpad software.

[1] = test system: Oligodendrocyte progenitor cells (OPCs); assay: In vitro OPC differentiation assay, GPR17 expression (immunocytochemistry); details: 3 μM (10× concentration, final 0.3 μM); 72 hours; fold change over vehicle

Chain of PDGFRα (P16234 24-1089): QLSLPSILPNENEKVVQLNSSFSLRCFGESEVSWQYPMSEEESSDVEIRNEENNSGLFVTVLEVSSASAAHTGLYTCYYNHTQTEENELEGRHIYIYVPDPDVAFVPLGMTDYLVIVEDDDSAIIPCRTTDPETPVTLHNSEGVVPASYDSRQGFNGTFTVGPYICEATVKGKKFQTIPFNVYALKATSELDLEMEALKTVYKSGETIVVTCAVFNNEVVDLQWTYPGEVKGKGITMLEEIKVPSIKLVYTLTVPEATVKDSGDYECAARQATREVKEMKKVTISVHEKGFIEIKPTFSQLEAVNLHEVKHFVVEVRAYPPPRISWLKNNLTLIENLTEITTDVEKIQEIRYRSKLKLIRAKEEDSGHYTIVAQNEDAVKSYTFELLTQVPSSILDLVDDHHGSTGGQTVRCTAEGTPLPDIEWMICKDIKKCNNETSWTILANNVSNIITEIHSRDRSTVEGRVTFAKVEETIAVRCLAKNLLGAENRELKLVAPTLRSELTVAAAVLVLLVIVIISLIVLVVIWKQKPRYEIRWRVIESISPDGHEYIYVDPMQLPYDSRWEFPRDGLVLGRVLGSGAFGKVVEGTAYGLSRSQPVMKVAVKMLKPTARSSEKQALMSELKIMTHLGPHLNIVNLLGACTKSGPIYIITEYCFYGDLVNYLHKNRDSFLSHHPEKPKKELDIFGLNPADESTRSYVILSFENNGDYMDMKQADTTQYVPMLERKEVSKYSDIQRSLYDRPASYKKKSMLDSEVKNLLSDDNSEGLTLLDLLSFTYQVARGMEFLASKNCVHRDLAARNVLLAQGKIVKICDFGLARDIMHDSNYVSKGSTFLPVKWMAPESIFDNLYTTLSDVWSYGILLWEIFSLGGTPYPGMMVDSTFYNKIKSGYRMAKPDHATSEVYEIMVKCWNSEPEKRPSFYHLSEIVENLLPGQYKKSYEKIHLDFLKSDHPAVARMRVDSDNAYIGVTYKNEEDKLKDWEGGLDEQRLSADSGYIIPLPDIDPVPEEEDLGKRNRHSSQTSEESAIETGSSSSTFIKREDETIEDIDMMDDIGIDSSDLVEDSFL

## C[C@@H](OC(=O)N1CCN(c2cnc3nc(-c4cnn(C)c4)ccn23)CC1)c1ccccc1 [Compound 116, (R)-1-phenylethyl 4-(7-(1-methyl-1H-pyrazol-4-yl)imidazo[1,2-a]pyrimidin-3-yl)piperazine-1-carboxylate]
PDGFRα
  IC50: 6.52 µM
[1]
  GPR17 Fold Induction (Over Vehicle; 3 μM): 4.31

## C[C@@H](OC(=O)N1CCCN(c2cnc3nc(-c4cnn(C)c4)ccn23)CC1)c1ccccc1 [Compound 117, (R)-1-phenylethyl 4-(7-(1-methyl-1H-pyrazol-4-yl)imidazo[1,2-a]pyrimidin-3-yl)-1,4-diazepane-1-carboxylate]
PDGFRα
  IC50: > 10 µM
[1]
  GPR17 Fold Induction (Over Vehicle; 3 μM): 1.39

## Cn1cc(-c2cc3ncc(N4CCN(C(=O)NCc5ccc(C(F)(F)F)cc5)CC4)n3cn2)cn1 [Compound 118, 4-(7-(1-methyl-1H-pyrazol-4-yl)imidazo[1,2-c]pyrimidin-3-yl)-N-(4-(trifluoromethyl)benzyl)piperazine-1-carboxamide]
PDGFRα
  IC50: > 10 µM
[1]
  GPR17 Fold Induction (Over Vehicle; 3 μM): 0.93

## Cn1cc(-c2ccn3c(N4CCN(C(=O)NCc5ccc(C(F)(F)F)cc5)CC4)cnc3n2)cn1 [Compound 119, 4-(7-(1-methyl-1H-pyrazol-4-yl)imidazo[1,2-a]pyrimidin-3-yl)-N-(4-(trifluoromethyl)benzyl)piperazine-1-carboxamide]
PDGFRα
  IC50: 1.71 µM
[1]
  GPR17 Fold Induction (Over Vehicle; 3 μM): 8.04

## Cn1cc(-c2ccn3c(N4CCCN(C(=O)NCc5ccc(C(F)(F)F)cc5)CC4)cnc3n2)cn1 [Compound 120, 4-(7-(1-methyl-1H-pyrazol-4-yl)imidazo[1,2-a]pyrimidin-3-yl)-N-(4-(trifluoromethyl)benzyl)-1,4-diazepane-1-carboxamide]
PDGFRα
  IC50: > 10 µM
[1]
  GPR17 Fold Induction (Over Vehicle; 3 μM): 0.87

## Cn1cc(-c2ccn3c(N4CCN(c5ncc(Cc6ccccc6)cn5)CC4)cnc3n2)cn1 [Compound 121, 3-(4-(5-benzylpyrimidin-2-yl)piperazin-1-yl)-7-(1-methyl-1H-pyrazol-4-yl)imidazo[1,2-a]pyrimidine]
PDGFRα
  IC50: 0.818 µM
[1]
  GPR17 Fold Induction (Over Vehicle; 3 μM): 4.71

## Cn1cc(-c2ccn3c(N4CCCN(c5ncc(Cc6ccccc6)cn5)CC4)cnc3n2)cn1 [Compound 122, 3-(4-(5-benzylpyrimidin-2-yl)-1,4-diazepan-1-yl)-7-(1-methyl-1H-pyrazol-4-yl)imidazo[1,2-a]pyrimidine]
PDGFRα
  IC50: > 10 µM
[1]
  GPR17 Fold Induction (Over Vehicle; 3 μM): 3.19

## Cn1cc(-c2ccc3c(NCCNc4ncc(Cc5ccccc5)cn4)cnn3c2)cn1 [Compound 123, N^1-(5-benzylpyrimidin-2-yl)-N^2-(6-(1-methyl-1H-pyrazol-4-yl)pyrazolo[1,5-a]pyridin-3-yl)ethane-1,2-diamine]
PDGFRα
  IC50: > 10 µM
[1]
  GPR17 Fold Induction (Over Vehicle; 3 μM): 1.34

## Cn1cc(-c2ccc3c(NCCCNc4ncc(Cc5ccccc5)cn4)cnn3c2)cn1 [Compound 124, N^1-(5-benzylpyrimidin-2-yl)-N^3-(6-(1-methyl-1H-pyrazol-4-yl)pyrazolo[1,5-a]pyridin-3-yl)propane-1,3-diamine]
PDGFRα
  IC50: > 10 µM
[1]
  GPR17 Fold Induction (Over Vehicle; 3 μM): 1.47

## CN(CCNc1ncc(Cc2ccccc2)cn1)c1cnn2cc(-c3cnn(C)c3)ccc12 [Compound 125, N^1-(5-benzylpyrimidin-2-yl)-N^2-methyl-N^2-(6-(1-methyl-1H-pyrazol-4-yl)pyrazolo[1,5-a]pyridin-3-yl)ethane-1,2-diamine]
PDGFRα
  IC50: > 10 µM
[1]
  GPR17 Fold Induction (Over Vehicle; 3 μM): 1.09

## CN(CCNc1cnn2cc(-c3cnn(C)c3)ccc12)c1ncc(Cc2ccccc2)cn1 [Compound 126, N^1-(5-benzylpyrimidin-2-yl)-N^1-methyl-N^2-(6-(1-methyl-1H-pyrazol-4-yl)pyrazolo[1,5-a]pyridin-3-yl)ethane-1,2-diamine]
PDGFRα
  IC50: 7.12 µM
[1]
  GPR17 Fold Induction (Over Vehicle; 3 μM): 5.91

## CN(CCN(C)c1cnn2cc(-c3cnn(C)c3)ccc12)c1ncc(Cc2ccccc2)cn1 [Compound 127, N^1-(5-benzylpyrimidin-2-yl)-N^1,N^2-dimethyl-N^2-(6-(1-methyl-1H-pyrazol-4-yl)pyrazolo[1,5-a]pyridin-3-yl)ethane-1,2-diamine]
PDGFRα
  IC50: > 10 µM
[1]
  GPR17 Fold Induction (Over Vehicle; 3 μM): 1.36

## CN(CCCNc1ncc(Cc2ccccc2)cn1)c1cnn2cc(-c3cnn(C)c3)ccc12 [Compound 128, N^1-(5-benzylpyrimidin-2-yl)-N^3-methyl-N^3-(6-(1-methyl-1H-pyrazol-4-yl)pyrazolo[1,5-a]pyridin-3-yl)propane-1,3-diamine]
PDGFRα
  IC50: > 10 µM
[1]
  GPR17 Fold Induction (Over Vehicle; 3 μM): 1.45

## CN(CCCNc1cnn2cc(-c3cnn(C)c3)ccc12)c1ncc(Cc2ccccc2)cn1 [Compound 129, N^1-(5-benzylpyrimidin-2-yl)-N^1-methyl-N^3-(6-(1-methyl-1H-pyrazol-4-yl)pyrazolo[1,5-a]pyridin-3-yl)propane-1,3-diamine]
PDGFRα
  IC50: > 10 µM
[1]
  GPR17 Fold Induction (Over Vehicle; 3 μM): 2.27

## Cn1cc(-c2ccc3c(C4=CCC(C(=O)OCc5ccccc5)CC4)cnn3c2)cn1 (stereo not shown) [Compound 132, benzyl 4-(6-(1-methyl-1H-pyrazol-4-yl)pyrazolo[1,5-a]pyridin-3-yl)cyclohex-3-ene-1-carboxylate]
PDGFRα
  IC50: 0.744 µM
[1]
  GPR17 Fold Induction (Over Vehicle; 3 μM): 5.85

## Cn1cc(-c2ccc3c(C4=CCC(C(=O)OCc5ccccc5)C4)cnn3c2)cn1 (stereo not shown) [Compound 133, benzyl 3-[6-(1-methylpyrazol-4-yl)pyrazolo[1,5-a]pyridin-3-yl]cyclopent-3-ene-1-carboxylate]
PDGFRα
  IC50: 1.44 µM
[1]
  GPR17 Fold Induction (Over Vehicle; 3 μM): 3.02

## CN(Cc1ccccc1)C(=O)C1CC=C(c2cnn3cc(-c4cnn(C)c4)ccc23)C1 (stereo not shown) [Compound 135, N-benzyl-N-methyl-3-(6-(1-methyl-1H-pyrazol-4-yl)pyrazolo[1,5-a]pyridin-3-yl)cyclopent-3-ene-1-carboxamide]
PDGFRα
  IC50: 3.63 µM
[1]
  GPR17 Fold Induction (Over Vehicle; 3 μM): 7.38

## Cn1cc(-c2ccc3c(C4CCC(C(=O)OCc5ccccc5)CC4)cnn3c2)cn1 (stereo not shown) [Compound 136, benzyl 4-(6-(1-methyl-1H-pyrazol-4-yl)pyrazolo[1,5-a]pyridin-3-yl)cyclohexane-1-carboxylate]
PDGFRα
  IC50: > 10 µM
[1]
  GPR17 Fold Induction (Over Vehicle; 3 μM): 3.64

## Cn1cc(-c2ccc3c(C4CCC(C(=O)OCc5ccccc5)C4)cnn3c2)cn1 (stereo not shown) [Compound 137]
PDGFRα
  IC50: 5.05 µM
[1]
  GPR17 Fold Induction (Over Vehicle; 3 μM): 0.99

## Cn1cc(-c2ccc3c(C4CCC(COc5ccccc5)CC4)cnn3c2)cn1 (stereo not shown) [Compound 138, 6-(1-methyl-1H-pyrazol-4-yl)-3-(4-(phenoxymethyl)cyclohexyl)pyrazolo[1,5-a]pyridine]
PDGFRα
  IC50: 9.01 µM
[1]
  GPR17 Fold Induction (Over Vehicle; 3 μM): 0.98

## CN(Cc1ccccc1)C(=O)C1CCC(c2cnn3cc(-c4cnn(C)c4)ccc23)CC1 (stereo not shown) [Compound 139, N-benzyl-N-methyl-4-(6-(1-methyl-1H-pyrazol-4-yl)pyrazolo[1,5-a]pyridin-3-yl)cyclohexane-1-carboxamide]
PDGFRα
  IC50: 8.81 µM
[1]
  GPR17 Fold Induction (Over Vehicle; 3 μM): 3.87

## CN(Cc1ccccc1)C(=O)C1CCC(c2cnn3cc(-c4cnn(C)c4)ccc23)C1 (stereo not shown) [Compound 140, N-benzyl-N-methyl-3-(6-(1-methyl-1H-pyrazol-4-yl)pyrazolo[1,5-a]pyridin-3-yl)cyclopentane-1-carboxamide]
PDGFRα
  IC50: > 10 µM
[1]
  GPR17 Fold Induction (Over Vehicle; 3 μM): 3.54

## Cn1cc(-c2ccc3c(C4CCC(CCc5ccccc5)CC4)cnn3c2)cn1 (stereo not shown) [Compound 141, 6-(1-methyl-1H-pyrazol-4-yl)-3-(4-phenethylcyclohexyl)pyrazolo[1,5-a]pyridine]
PDGFRα
  IC50: > 10 µM
[1]
  GPR17 Fold Induction (Over Vehicle; 3 μM): 1.09

## CC1CN(c2ncc(Cc3ccccc3)cn2)CCN1c1cnn2cc(-c3cnn(C)c3)ccc12 (stereo not shown) [Compound 142, 3-(4-(5-benzylpyrimidin-2-yl)-2-methylpiperazin-1-yl)-6-(1-methyl-1H-pyrazol-4-yl)pyrazolo[1,5-a]pyridine]
PDGFRα
  IC50: 9.54 µM
[1]
  GPR17 Fold Induction (Over Vehicle; 3 μM): 5.85

## CC1CN(c2cnn3cc(-c4cnn(C)c4)ccc23)CCN1c1ncc(Cc2ccccc2)cn1 (stereo not shown) [Compound 143, 3-(4-(5-benzylpyrimidin-2-yl)-3-methylpiperazin-1-yl)-6-(1-methyl-1H-pyrazol-4-yl)pyrazolo[1,5-a]pyridine]
PDGFRα
  IC50: 0.616 µM
[1]
  GPR17 Fold Induction (Over Vehicle; 3 μM): 3.89

## Cn1cc(-c2ccc3c(N4CCN(c5ncc(Cc6ccccc6)cn5)C(=O)C4)cnn3c2)cn1 [Compound 144, 1-(5-benzylpyrimidin-2-yl)-4-(6-(1-methyl-1H-pyrazol-4-yl)pyrazolo[1,5-a]pyridin-3-yl)piperazin-2-one]
PDGFRα
  IC50: 4.53 µM
[1]
  GPR17 Fold Induction (Over Vehicle; 3 μM): 2.64

## Cn1cc(-c2ccc3c(N4CCC(C(=O)OCc5ccccc5)CC4)cnn3c2)cn1 [Compound 145, benzyl 1-(6-(1-methyl-1H-pyrazol-4-yl)pyrazolo[1,5-a]pyridin-3-yl)piperidine-4-carboxylate]
PDGFRα
  IC50: 6.97 µM
[1]
  GPR17 Fold Induction (Over Vehicle; 3 μM): 1.73

## Cn1cc(-c2ccc3c(N4CCC(C(=O)NCc5ccccc5)CC4)cnn3c2)cn1 [Compound 146, N-benzyl-1-(6-(1-methyl-1H-pyrazol-4-yl)pyrazolo[1,5-a]pyridin-3-yl)piperidine-4-carboxamide]
PDGFRα
  IC50: 5.69 µM
[1]
  GPR17 Fold Induction (Over Vehicle; 3 μM): 4.45

## CN(Cc1ccccc1)C(=O)C1CCN(c2cnn3cc(-c4cnn(C)c4)ccc23)CC1 [Compound 147, N-benzyl-N-methyl-1-(6-(1-methyl-1H-pyrazol-4-yl)pyrazolo[1,5-a]pyridin-3-yl)piperidine-4-carboxamide]
PDGFRα
  IC50: 6.72 µM
[1]
  GPR17 Fold Induction (Over Vehicle; 3 μM): 2.23
